From patent US20080213252A1, “METHODS OF TREATING ITCH” (priority 2007, published 2008)
Where no end group is shown, it is not given here.

Columns and labels:
[1] = test system: skin of volunteers; test: Psychophysics: itch sensation after insertion of native or reconstituted cowhage spicules into skin; format: in vivo; conditions: human volunteers; for blocking of itch and other sensations evoked by mucunain-containing spicules: E64 added during reconstitution of spicules; for itch evoked by substance loaded into inactivated spicules: autoclaved spicules soaked in the substance and dried; for itch evoked by PAR4 peptide agonist incubated with inactivated spicules: spicules incubated with peptide at 10 mM
Experimental: Reconstitution of spicules—Native spicules were inactivated by autoclaving for 1 hour and reconstituted with native and recombinant mucunains in the presence or absence of cysteine protease inhibitor, E64. Typically, 50 mg of inactivated spicules were mixed with 0.4 ml of 28 μM mucunain in a 2 ml microfuge tube, vortexed, and dried in a Speed-vac for 2 hours at room temperature. These spicules were then considered as ‘reconstituted’ with the protease alone. Spicules prepared in a similar manner but with E64 added at twice the concentration of mucunain, are considered reconstituted with the protease and the inhibitor.
Psychophysics—These protocols were approved by the Yale University Human Investigation Committee. A row of 10 cowhage spicules were lightly pasted to the flattened end of a Weck-Cel surgical strip, spaced at 1 mm, and applied parallel to the surface of the skin at the mid-volar forearm. […] Every 30 sec, subjects rated the magnitude of each of three qualities of sensation: Itch, pricking/stinging, and burning using the Generalized Labeled Magnitude Scale (Bartoshuk et al. 2004) that employs appropriately placed intensity descriptors of “none”, “barely detectable”, “weak”, “moderate”, “strong”, “very strong” and, at the top of the scale, “the strongest sensation imaginable.” Voltages derived from each subject's movements of a computer mouse that controlled a cursor on a visual representation of this scale were converted to numbers between 0 and 100 and plotted for each quality at successive intervals of 30 s up to 20 min after the insertion of cowhage. Each of nine subjects received, in separate tests, five types of cowhage spicules: native cowhage spicules, heat-inactivated spicules that had been soaked in a solution of cowhage extract containing E64, or the same but without E64, and heat-inactivated spicules that had been previously soaked in a solution of recombinant mucunain containing E64, or the same but without E64. The subject and experimenter were blinded as to the type of spicule administered.
The sensory effects of mucunain was further analyzed. A method of introducing mucunain into the skin of volunteers that would mimic the approach associated with the spicules was developed. Such a method would decrease or eliminate the pain associated with using conventional needles as such nociception might interfere with the sensation of itch. Spicules are inactivated when autoclaved but appear to maintain their physical structure. Inactivated spicules were soaked in a solution containing native or recombinant mucunain and then dried. One gram of fresh spicules was stirred for one hour at 4° C. with 20 ml of 0.1 M potassium phosphate buffer (pH 4.8) and 0.9% NaCl and the liquid removed by filtration through cheesecloth. The spicules were teased from the cheesecloth and autoclaved under dry heat for 30 minutes. The mucuna extract was passed through molecular filters to remove components with molecular weights of less than 9 kD. 50 mg of the inactivated, dried spicules were then soaked in 0.05 ml of the filtered extract containing 0.07 mg of cysteine protease (as determined by non-interfering protein assay) with or without 3.5 micrograms of E-64. The spicules were subsequently dried in a Speed-Vac for 2 hours. These spicules were considered ‘reconstituted’ with one batch containing the cysteine protease and its inhibitor and another batch, the protease alone. An analogous approach was used to load spicules with papain or histamine.

[2] = test system: PAR4; test: PAR activation by cytoplasmic calcium release, ratiometric Fura-2 imaging, PAR4 transfected HeLa cells; format: cell-based, human; conditions: for calcium influx in PAR4 transfected HeLa cells: Fura-2 340:380 ratiometric imaging
Experimental: PAR activation observed by cytoplasmic calcium release—The four human PAR cDNAs were obtained from commercial sources and cloned into the pcDNA3.1 (−) vector (Invitrogen). HeLa cells were transfected with 10 μg of vector cDNA using Lipofectamine 2000 (Invitrogen) and cultured for two days in 96-well glass bottom plates at 30,000 cells/well. Cells were loaded with Fura-2 as follows. The medium was aspirated and replaced with 100 μl of complete DMEM containing 2 μM Fura-2 (Invitrogen) and kept at room temperature in the dark for 1 hr. The medium was again aspirated and each well received 90 μl of HEPES buffered saline (20 mM HEPES, 115 mM NaCl, 5.4 mM KCl, 2 mM CaCl2, 0.8 mM MgCl2, 13.8 mM glucose, pH 7.4). Plates were observed using a Zeiss Axiovert 200M microscope equipped with a filter wheel for monitoring excitation at 340 and 380 nm. Axiovision software, version 4.6 was used to analyze ratiometric calcium imaging of the cells. Ten μl of protease was applied approximately 20 seconds after the start of excitation. Images were taken every 5 seconds, beginning at time zero, for 3 minutes. The software was used to analyze the 37 images taken during each 3-minute period.

[3] = biological target: T1, mucunain (Mucuna pruriens, UniProt B2LSD2); test: Chromogenic substrate assay, inhibition of mucunain by E64; format: biochemical, M. pruriens; conditions: native mucunain 0.9 μM, recombinant mucunain 2.7 μM
T1 construct: made in house; host or cells: E. coli ER2566 (pTWIN1MUC1300) for recombinant mucunain; native mucunain extracted from M. pruriens spicules
From the text: Papain served as a control cysteine protease.

T1 sequence (B2LSD2 99-430): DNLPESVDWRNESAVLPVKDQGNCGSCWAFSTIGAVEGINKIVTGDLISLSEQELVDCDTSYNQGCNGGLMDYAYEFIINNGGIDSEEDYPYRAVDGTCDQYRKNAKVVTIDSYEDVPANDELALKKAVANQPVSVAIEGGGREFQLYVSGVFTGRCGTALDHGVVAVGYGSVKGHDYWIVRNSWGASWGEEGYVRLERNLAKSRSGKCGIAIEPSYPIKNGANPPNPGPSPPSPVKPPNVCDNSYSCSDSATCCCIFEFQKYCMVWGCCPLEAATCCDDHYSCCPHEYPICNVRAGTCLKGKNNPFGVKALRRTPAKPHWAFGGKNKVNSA

| Molecule | itch evoked by substance loaded into inactivated spicules [1] | itch evoked by PAR4 peptide agonist incubated with inactivated spicules [1] | calcium influx in PAR4 transfected HeLa cells [2] | further results |
| --- | --- | --- | --- | --- |
| CC(C)C[C@H](NC(=O)[C@H]1O[C@@H]1C(=O)O)C(=O)NCCCCNC(=N)N (relative stereo) [E64, 1-[N-[(L-3-trans-carboxyoxirane-2-carbonyl)-L-leucyl]amino]-4-guanidinobutane] | – | – | – | blocking of itch and other sensations evoked by mucunain-containing spicules [1]: blocked all sensations; blocking of itch and other sensations evoked by mucunain-containing spicules ([1]; listed as E-64): effective in preventing itch; blocking of protease-induced PAR4 activation ([2]; native mucunain, recombinant mucunain and papain in the presence of E64): blocked; blocking of Z-FR-pNA cleavage by mucunain [3]: blocked |
| NCCc1c[nH]cn1 [histamine] | produced itch | – | – | – |
| AYPGKF-NH2 | – | elicited itch | induced calcium influx | – |
| GYPGKF-NH2 [ID; No. 28] | – | elicited itch | – | – |
| bromelain | produced itch | – | induced calcium influx | – |
| ficin | – | – | induced calcium influx | – |
